Reference: patent US10828301B2, “2,4-pyrimidinediamine compounds and their uses” (Rigel Pharmaceuticals, Inc, priority 2002, dated 2020)

Key:
[1] = system: cultured human mast cells (CHMC); assay: CHMC low cell density ionomycin activation: tryptase assay; type: cell-based; conditions: Low Density CHMC, ionomycin activation, tryptase readout, read-out: CHMC Ionomycin Tryptase
[2] = system: cultured human mast cells (CHMC); assay: CHMC low cell density IgE activation: tryptase and LTC4 assays; type: cell-based; conditions: Low Density CHMC, anti-IgE activation, tryptase readout, read-out: CHMC anti-IgE Tryptase
In short: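 Cultured human mast cells at low density (1000-1500 per well) rested 1 h at 37° C, then stimulated with anti-IgE for 30 min at 37° C. Supernatant tryptase measured with fluorogenic substrate (30 min, room temperature); LTC4 quantified by ELISA on diluted supernatant.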

SMILES	IC50 [1] [µM]	IC50 [2] [µM]	IC50 ([1]; Homo sapiens, Mast cell) [µM]	IC50 ([2]; Homo sapiens, Mast cell) [µM]
CNC(=O)COc1cccc(Nc2ncc(F)c(Nc3ccc4c(c3)C=CCC4)n2)c1 [Compound R926944, 5-Fluoro-N4-(3,4-dihydronaphthalen-7-yl)-N2-[3-[(N-methylamino)carbonylmethyleneoxy]phenyl]-2,4-pyrimidinediamine]	99	0.225	–	–
COc1ccc(Nc2nc(Nc3cccc(O)c3)ncc2F)cc1Cl [Compound R926945, N4-(3-Chloro-4-methoxyphenyl)-5-fluoro-N2-(3-hydroxyphenyl)-2,4-pyrimidinediamine]	–	–	> 10	0.457
CNC(=O)COc1cccc(Nc2ncc(F)c(Nc3ccc4c(c3)C(=NO)CCC4)n2)c1 [Compound R926948, 5-Fluoro-N4-(1,2,3,4-tetrahydro-1-hydroxyiminonaphthalen-7-yl)-N2-[3-[(N-methylamino)carbonylmethyleneoxy]phenyl]-2,4-pyrimidinediamine]	> 10	0.246	–	–
COC(=O)C1Cc2cc(Nc3ncc(F)c(Nc4ccc(OC)c(Cl)c4)n3)ccc2O1 (centres unmarked) [Compound R926951, N4-(3-Chloro-4-methoxyphenyl)-5-fluoro-N2-[2,3-dihydro-2-(methoxycarbonyl)benzofuran-5-yl]-2,4-pyrimidinediamine]	–	–	> 10	0.183
COC(=O)C1Cc2cc(Nc3ncc(F)c(Nc4ccc(OC(F)(F)F)c(Cl)c4)n3)ccc2O1 (centres unmarked) [Compound R926953, N4-(3-Chloro-4-trifluoromethoxyphenyl)-5-fluoro-N2-[2,3-dihydro-2-(methoxycarbonyl)benzofuran-5-yl]-2,4-pyrimidinediamine]	–	–	> 10	0.049
CNC(=O)C1Cc2cc(Nc3ncc(F)c(Nc4ccc(OC(F)(F)F)c(Cl)c4)n3)ccc2O1 (centres unmarked) [Compound R926954, N4-(3-Chloro-4-trifluoromethoxyphenyl)-5-fluoro-N2-[2,3-dihydro-2-[(N-methylamino)carbonyl]benzofuran-5-yl]-2,4-pyrimidinediamine]	–	–	> 10	0.284
CNC(=O)C1Cc2cc(Nc3ncc(F)c(Nc4ccc(OC)c(Cl)c4)n3)ccc2O1 (centres unmarked) [Compound R926955, N4-(3-Chloro-4-methoxyphenyl)-5-fluoro-N2-[2,3-dihydro-2-[(N-methylamino)carbonyl]benzofuran-5-yl]-2,4-pyrimidinediamine]	–	–	> 10	0.36
Oc1cccc(Nc2ncc(F)c(Nc3ccc(Cl)cn3)n2)c1 [Compound R927020, N4-(5-Chloropyridin-2-yl)-5-fluoro-N2-(3-hydroxyphenyl)-2,4-pyrimidinediamine]	–	–	> 10	1.32
CNC(=O)COc1cccc(Nc2ncc(F)c(Nc3ccc(OCCO)nc3)n2)c1 [Compound R927023, 5-Fluoro-N4-[2-(2-hydroxyethyleneoxy)pyridin-5-yl]-N2-[3-(N-methylamino)carbonylmethyleneoxyphenyl]-2,4-pyrimidinediamine]	> 10	0.918	–	–
COC(=O)c1cc2cc(Nc3ncc(F)c(Nc4ccc(Cl)cc4)n3)ccc2o1 [Compound R927026, N4-(4-Chlorophenyl)-5-fluoro-N2-(2-methoxycarbonylbenzofuran-5-yl)-2,4-pyrimidinediamine]	–	–	> 10	> 10
COC(=O)c1cc2cc(Nc3ncc(F)c(Nc4ccc(Cl)c(Cl)c4)n3)ccc2o1 [Compound R927027, N4-(3,4-Dichlorophenyl)-5-fluoro-N2-(2-methoxycarbonylbenzofuran-5-yl)-2,4-pyrimidinediamine]	–	–	> 10	> 10
COc1ccc(-c2ccccc2)cc1Nc1ncc(C)c(Nc2cc(-c3ccccc3)ccc2OC)n1 [Compound R935000, N2,N4-Bis(2-methoxy-5-phenylphenyl)-5-methyl-2,4-pyrimidinediamine]	–	–	> 10	> 10
COc1ccc(C(Nc2ncc(F)c(NC(c3ccc(OC)cc3)c3ccc(OC)cc3)n2)c2ccc(OC)cc2)cc1 [Compound R935004, N2,N4-Bis[[di-(4-methoxyphenyl)]methyl]-5-fluoro-2,4-pyrimidinediamine]	–	–	> 10	> 10
